Among the data in ChEMBL document CHEMBL4334494, “Recent advances in the targeting of human DNA ligase I as a potential new strategy for cancer treatment” (Eur J Med Chem, 2019) are inhibition and Activity values, retold here.

SMILES strings stand for the structures.

One data set deals with HCT-116. As to the kind of experiment: Antiproliferative activity against human HCT116 cells at 100 uM relative to control. Format: functional.
A further data set concerns A549. As to the kind of experiment: Antiproliferative activity against human A549 cells at 100 uM relative to control. Format: functional.
Another data set concerns HepG2. As to the kind of experiment: Antiproliferative activity against human HepG2 cells at 100 uM relative to control. Format: functional.
Another data set relates to HEK293. The data set is described as follows: Cytotoxicity against HEK293 cells at 100 uM relative to control. The data set is classed as cell-based. As to conditions: human, hek293, 100 µM.
The subject of the next data set is DLD-1. As to the kind of experiment: Antiproliferative activity against human DLD1 cells at 100 uM relative to control. Format: functional.
A further data set deals with MDA-MB-231. The data set is described as follows: Antiproliferative activity against human MDA-MB-231 cells at 100 uM relative to control. The data set is classed as functional.
Another data set concerns the target DNA ligase 1 (Homo sapiens, UniProt P18858). The data set is described as follows: Inhibition of human DNA ligase 1 expressed in Escherichia coli BL21DE3RP cells at 50 uM using 52-mer DNA/25-mer DNA/27-mer DNA as substrate after 30 mins by Cyanin3 dye-based fluorescence assay relative to control.

Sequence of DNA ligase 1 (P18858 whole entry): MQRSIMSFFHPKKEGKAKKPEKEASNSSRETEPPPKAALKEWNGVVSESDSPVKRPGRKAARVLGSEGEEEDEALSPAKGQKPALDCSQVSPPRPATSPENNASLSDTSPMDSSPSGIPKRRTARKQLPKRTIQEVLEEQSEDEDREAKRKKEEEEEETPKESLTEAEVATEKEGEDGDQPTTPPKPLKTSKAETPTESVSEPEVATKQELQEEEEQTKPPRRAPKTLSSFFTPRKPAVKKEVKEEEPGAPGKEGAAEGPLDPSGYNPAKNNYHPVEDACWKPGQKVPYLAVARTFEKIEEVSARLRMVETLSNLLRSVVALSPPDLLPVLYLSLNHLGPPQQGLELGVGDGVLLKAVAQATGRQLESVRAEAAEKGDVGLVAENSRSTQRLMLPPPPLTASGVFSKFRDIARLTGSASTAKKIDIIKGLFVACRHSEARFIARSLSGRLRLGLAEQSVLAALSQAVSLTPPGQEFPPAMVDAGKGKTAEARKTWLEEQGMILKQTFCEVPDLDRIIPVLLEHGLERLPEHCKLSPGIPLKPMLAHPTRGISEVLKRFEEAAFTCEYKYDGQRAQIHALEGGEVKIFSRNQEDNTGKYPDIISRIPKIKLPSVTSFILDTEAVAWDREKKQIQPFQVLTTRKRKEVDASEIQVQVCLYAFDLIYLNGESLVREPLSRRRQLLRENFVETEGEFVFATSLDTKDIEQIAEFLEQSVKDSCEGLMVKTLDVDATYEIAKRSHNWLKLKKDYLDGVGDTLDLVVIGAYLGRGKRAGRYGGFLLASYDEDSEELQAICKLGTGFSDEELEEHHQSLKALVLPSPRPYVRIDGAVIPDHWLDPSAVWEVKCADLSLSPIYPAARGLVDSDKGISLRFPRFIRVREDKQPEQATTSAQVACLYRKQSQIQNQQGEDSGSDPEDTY

Take `CCOC(=O)C1=C(C)NC(=O)NC1c1cc(/C=N/NC(=S)Nc2ccc(Cl)cc2)c(O)c(C(C)(C)C)c1` (stereo unspecified): the inhibition at 100 µM in the data set on HCT-116, with A549, in the data set on HepG2, with DLD-1 and in the data set with MDA-MB-231 was greater than 80% in each case. The same compound displayed an Activity in the data set on HEK293 greater than 80%.
Consider `CCOC(=O)C1=C(C)NC(=S)NC1c1cc(C)c(O)c(/C=N/NC(=O)Nc2ccc(Cl)cc2)c1` (stereo unspecified), for which the inhibition at 100 µM with HCT-116, in the data set with A549, in the data set on HepG2, with DLD-1 and in the data set on MDA-MB-231 was greater than 80% in each case. Moreover, in the data set on HEK293, the Activity was greater than 80%.
Regarding `CCOC(=O)C1=C(C)NC(=S)NC1c1cc(/C=N/NC(=S)Nc2ccccc2)c(O)c(C(C)(C)C)c1` (stereo unspecified), the inhibition at 100 µM with HCT-116, in the data set with A549, with HepG2, in the data set with DLD-1 and with MDA-MB-231 was less than 80% each time. Moreover, in the data set with HEK293, the Activity is listed as less than 80%.
Regarding `CCOC(=O)C1=C(C)NC(=S)NC1c1cc(/C=N/NC(=S)Nc2ccc(Cl)cc2)c(O)c(C(C)(C)C)c1` (stereo unspecified), the inhibition at 100 µM in the data set with HCT-116, in the data set with A549, in the data set with HepG2, in the data set with DLD-1 and in the data set on MDA-MB-231 was less than 80% each time. Moreover, in the data set on HEK293, the Activity was less than 80%.
`CCOC(=O)C1=C(C)NC(=O)NC1c1cc(/C=N/NC(=S)NC)c(O)c(C(C)(C)C)c1` (stereo unspecified): the inhibition at 100 µM with HCT-116, with A549, in the data set on HepG2, in the data set on DLD-1 and in the data set with MDA-MB-231 was greater than 80% in each case. This compound returned an Activity in the data set with HEK293 greater than 80%.
Regarding `CCOC(=O)C1=C(C)NC(=O)NC1c1cc(C)c(O)c(/C=N/NC(N)=O)c1` (stereo unspecified), the inhibition at 100 µM in the data set on HCT-116, with A549, with HepG2, in the data set with DLD-1 and in the data set on MDA-MB-231 was less than 80% in each case. Moreover, the Activity in the data set with HEK293 is less than 80%.
With `CCOC(=O)C1=C(C)NC(=O)NC1c1cc(/C=N/NC(=S)Nc2ccccc2)c(O)c(C(C)(C)C)c1` (stereo unspecified), the inhibition at 100 µM in the data set with HCT-116, in the data set with A549, with HepG2, in the data set on DLD-1 and with MDA-MB-231 was greater than 80% each time. The same compound showed an Activity with HEK293 greater than 80%.
For the compound `CCOC(=O)C1=C(C)NC(=S)NC1c1cc(/C=N/NC(=S)Nc2ccc(C)cc2)c(O)c(C(C)(C)C)c1` (stereo unspecified), the inhibition at 100 µM with HCT-116, with A549, in the data set on HepG2, in the data set with DLD-1 and in the data set on MDA-MB-231 was less than 80% throughout. The compound further showed an Activity in the data set on HEK293 of less than 80%.
Compound `O=C1/C(=C/c2ccc(F)cc2)CN(C(=S)NCc2ccccc2)C/C1=C\c1ccc(F)cc1` yielded an inhibition on DNA ligase 1 greater than 75%.
The same measure, in the same setting: the figure for `Cc1ccccc1/C=C1\CN(c2nc(-c3ccccc3)cs2)C/C(=C\c2ccccc2C)C1=O` is greater than 75%; for `O=C1/C(=C/c2ccccc2F)CN(C(=S)NC(=O)c2ccccc2)C/C1=C\c1ccccc1F` it is greater than 75%.
On the same count and under the same terms, the figure for `O=C1/C(=C/c2ccc(F)cc2)CN(C(=S)Nc2ccccc2)C/C1=C\c1ccc(F)cc1` is greater than 75%.
On the same count and under the same terms, for `CCCCNC(=S)N1C/C(=C\c2ccc(OC)cc2)C(=O)/C(=C/c2ccc(OC)cc2)C1` the value was greater than 75%; for `Cc1ccccc1/C=C1\CN(C(=S)NCCc2ccccc2)C/C(=C\c2ccccc2C)C1=O`, greater than 75%.
`Cc1ccc(/C=C2\CN(C(=S)NCc3ccccc3)C/C(=C\c3ccc(C)cc3)C2=O)cc1`: the inhibition against DNA ligase 1 is greater than 75%.
For `Cc1ccccc1/C=C1\CN(C(=S)Nc2ccccc2)C/C(=C\c2ccccc2C)C1=O`, on DNA ligase 1, the inhibition was greater than 75%.
